From paper PMC5833389 (Oncogenesis, 2018)

Columns and labels:
PC-3 cells [1] = experiment: Proliferation assay, adherent monolayer, alamarBlue; type: cell-based, human; conditions: adherent monolayers
Method: PC-3 cells were incubated with compounds for 5 days at 37 °C/5% CO2, stained with alamarBlue® and fluorescence was determined (544 nm/590 nm). Data were analyzed as described above.

PC-3 cells [2] = experiment: Clonogenic assay in soft agar (anchorage-independent growth); type: cell-based, human; conditions: alamarBlue, read-out: Colony formation EC50 PC-3
Method: Clonogenic assays were performed using agarose-containing media. Cells were incubated at 37 °C and 5% CO2 for 14 days. alamarBlue® was used to detect colonies of viable cells (530 nm/590 nm). Data analysis was performed as described above.

EC50 (PC-3 cells [1]): 1650 nM
EC50 (PC-3 cells [2]): 42 nM
SMILES: CN(c1ncccc1CNc1nc(Nc2ccc3c(c2)CC(=O)N3)ncc1C(F)(F)F)S(C)(=O)=O [PF-562,271, reference compound]
